Test results from patent EP0590563A1, “Biotin amides, a process for their preparation and therapeutical compositions containing them as the active principles for the treatment of diabetes and relative complicating diseases” (LIFEGROUP S.p.A., priority 1992, dated 1994).
Like-named read-outs stand apart in the source and are kept apart here.

Key:
[1] = solubility in organic solvents; type: physicochemical; details: organic solvent or mixture
solubility in water = type: physicochemical; details: for solubility in water: result in words
[2] = tested on: diabetes induced by streptozotocin; experiment: Experimental diabetes induced by streptozotocin; type: in vivo, male Wistar rats; details: for AcAc: Aceto Acetate
Experimental: The derivatives are then tested in order to define their biologic activity in experimental conditions of hyperglycemia induced both by food absence and by diabetes induced by streptozotocin. Hepatic glucokinase activity is examined in the experimental condition of food absence. Glycemia, insulinemia and the levels of Aceto Acetate (Ac.Ac.) are examined in the diabetes induced by streptozotocin.
10 male Wistar rats (200 g) are divided into 4 groups, the first group is composed by the controls, to the remaining groups streptozotocin is injected by intraperitoneal route (80 mg/kg). The third group is furthermore treated with biotin (3 mg/kg) by intraperitoneal route, and the fourth group with biotinyl ethanolamide (3 mg/kg) again by intraperitoneal route. The treatment is repeated for three days, then a blood sample is taken for analysis on the fifth day from the initial treatment.

hepatic glucokinase [3] = experiment: Ex vivo hepatic glucokinasic activity, Experiment A; type: in vivo, Wistar rats; details: for Glucokinasic activity: 3 mg/kg i.p. after 24 hours without food, sacrifice after 6 hours, mean ± stan. deviation
Experimental: This experiment is carried out following to Chauhan et al. process (J. Biol. Chem. 266, 10035, 1991), according to this process, hepatic glucokinase in the rat, which activity is depressed by food absence is reactivated by the biotin action. 15 Wistar rats weighing on average 250 g are divided into three groups, the first one represent the controls, the second one is treated by intraperitoneal route with biotin (3 mg/kg) and the third group with biotinylethanolamine (3 mg/kg) again by intraperitoneal route. Rats are treated after 24 hours without food and after 6 hours are sacrificed by decapitation. Livers are homogenized in 5 volumes 50 mM Tris at pH 7, 0.15 M KCl, 5 mM EGTA, 4 mM MgCl₂, and 2 mM dithiothreitol and centrifugated at 100.000 x g for 60 minutes. The surnatant, frozen to -80 °C, is used for the analyses, after identifying proteins according to Bradford method (Anal. Biochem. 72, 248, 1976). Glucokinase is dosed by spectrophotometry according to Dakshinamurti et al. (Can. J. Biochem. 46, 75, 1968) with the following results: […]

hepatic glucokinase [4] = experiment: Ex vivo hepatic glucokinasic activity, Experiment B; type: in vivo, Sprague Dawley rat; details: 2 mg/kg i.p., rats without food for 24 hours, 3 hours after the treatment
Experimental: Also this experiment, like the previous one, is carried out by following Chauhan et al. process (J. Biol. Chem. 266, 10035, 1991), according to this process, hepatic glucokinase in the rat, which activity is depressed by food absence and it is reactivated by the biotin action.
Sprague Dawley rat weighing on average 260 g left without food for 24 hours, are divided into 15 groups, each of 13 groups are respectively intraperitoneally treated with 2 mg/kg of one of the compounds of the present invention hereinbelow reported in Table 1 or with the same dosage of biotin, all these substances being previously dissolved in physiological solutions. The obtained results are compared with those of the two groups corresponding to normal rats feeded ad libitum and with untreated rats left without food for 24 hours, all the animals had free admission to water.
3 hours after the treatment the rats are sacrificed by cerebral displacement. […] The homogenates are centrifugated at 100.000 x g for 60 minutes.Their proteic concentration is determined according to the above mentioned Bradford method (Anal. Biochem. 72, 248, 1976).
Glucokinase activity is evaluated according to Dakshinamurti et al. (Can. J. Biochem. 46, 75, 1968), and expressed as arbitrary units /proteic concentration of the samples.

[5] = background statement, in words; cited from earlier work
diabetic patients = details: 16mg/die for 1 week, insulin treatment interrupted; cited from earlier work
[6] = tested on: genetically diabetic mice KK; details: 2mg/kg for 14 days; cited from earlier work
neuropathy = details: intramuscular for 6 weeks, with oral daily dose of 5 mg for about 2 years; cited from earlier work
[7] = streptozotocin 80 mg/kg i.p., test substance 3 mg/kg i.p. for three days, blood sample on the fifth day
[8] = result in words, 3 mg/kg i.p., streptozotocin rats
[9] = aqueous buffer, in 0.1M phosphate buffer at pH 7.4

O=C(CCCC[C@@H]1SC[C@@H]2NC(=O)N[C@@H]21)NCc1ccccc1 [Example 4, N-β-biotinyl-benzylamine]
solubility ([1]; in DMSO): > 10000 µg/mL
solubility ([1]; in ethanol): > 10000 µg/mL
solubility in water (solubility in water; water): poorly soluble

CN=C(N)NCCC[C@H](NC(=O)CCCC[C@@H]1SC[C@@H]2NC(=O)N[C@@H]21)C(=O)O [Example 2, N-β-biotinyl-N^G-methyl-L-arginine]
solubility ([1]; in DMSO): > 10000 µg/mL
solubility (solubility in water; water): > 10000 µg/mL

O=C(O)CCCC[C@@H]1SC[C@@H]2NC(=O)N[C@@H]21 [Biotin, biotin]
AcAc [2, 7]: 0 nmol/L
Glycemia [2, 8]: normalized
insulinemia [2, 8]: active
Glycemia [2, 7]: 7.4 ± 0.9 mmol/L
insulinemia [2, 7]: 25.1 ± 1.5 mU/l
Glucokinasic activity (hepatic glucokinase [3]): 3.96 ± 0.70 U./min/protein mg
glucokinase activity (hepatic glucokinase [4]): 3.662± 0.280 UA/mg proteins
solubility in water [5]: poorly soluble in water
hematic glucose rate (diabetic patients): significant reduction
glucose tolerance [6]: improved sensibly
conduction velocity at the level of the motor nerves and of the action sensory potentials (neuropathy): slight improvement
subjective neurologic symptoms (neuropathy): marked improvement

O=C1N[C@H]2[C@H](CS[C@H]2CCCCC(=O)N2CCN(CCO)CC2)N1 [Example 3, N¹-β-biotinyl-N⁴-(2-hydroxyethyl) piperazine hydrochlorate]
solubility ([1]; in DMSO): > 10000 µg/mL
solubility (solubility in water; water): > 10000 µg/mL

CCCCNC(=O)CCCC[C@@H]1SC[C@@H]2NC(=O)N[C@@H]21 [Example 8, N-β-biotinyl-1-aminobutane]
solubility ([1]; in DMSO): > 10000 µg/mL
solubility in water (solubility in water; water): poorly soluble

O=C(CCCC[C@@H]1SC[C@@H]2NC(=O)N[C@@H]21)NC1CCCCC1 [Example 9, N-β-biotinyl-aminocyclohexane]
solubility ([1]; in DMSO): > 10000 µg/mL
solubility in water (solubility in water; water): poorly soluble

O=C(CCCC[C@@H]1SC[C@@H]2NC(=O)N[C@@H]21)NCCCCO [Example 5, N-β-biotinyl-4-amino-butanol]
solubility ([1]; in DMSO): > 10000 µg/mL
solubility (solubility in water; water): > 5000 µg/mL

O=C(CCCC[C@@H]1SC[C@@H]2NC(=O)N[C@@H]21)NCc1ccc([N+](=O)[O-])cc1 [Example 10, N-β-biotinyl-4-nitrobenzylamine]
solubility ([1]; in DMSO): > 10000 µg/mL
solubility in water (solubility in water; water): poorly soluble

N=C(N)NCCC[C@H](NC(=O)CCCC[C@@H]1SC[C@@H]2NC(=O)N[C@@H]21)C(=O)O [Example 11, N-β-biotinyl-L-arginine]
solubility ([1]; in DMSO): > 10000 µg/mL
solubility (solubility in water; water): > 10000 µg/mL

O=C(CCCC[C@@H]1SC[C@@H]2NC(=O)N[C@@H]21)N[C@@H](CS)C(=O)O [Example 12, N-β-biotinyl-L-cysteine]
solubility ([1]; in DMSO): > 10000 µg/mL
solubility (solubility in water; [9]): > 10000 µg/mL

O=C(CCCC[C@@H]1SC[C@@H]2NC(=O)N[C@@H]21)NCCNC(=O)CCCC[C@@H]1SC[C@@H]2NC(=O)N[C@@H]21 [Example 6, N,N'bis-(β-biotinyl)-ethylendiamine]
solubility ([1]; in hot DMSO): > 2000 µg/mL
solubility in water (solubility in water; water): poorly soluble

O=C(CCCC[C@@H]1SC[C@@H]2NC(=O)N[C@@H]21)N[C@@H](CO)C(=O)O [Example 7, N-β-biotinyl-L-serine]
solubility ([1]; in DMSO): > 10000 µg/mL
solubility (solubility in water; [9]): > 10000 µg/mL

O=C(CCCC[C@@H]1SC[C@@H]2NC(=O)N[C@@H]21)NCCO [Example 1, N-β-biotinyl-ethanolamine]
solubility ([1]; in DMSO): > 10000 µg/mL
solubility (solubility in water; water): > 10000 µg/mL
AcAc [2, 7]: 0 nmol/L
Glycemia [2, 8]: normalized
insulinemia [2, 8]: active
Glycemia [2, 7]: 6.0 ± 0.5 mmol/L
insulinemia [2, 7]: 23.5 ± 1.8 mU/l
Glucokinasic activity (hepatic glucokinase [3]): 4.27 ± 0.45 U./min/protein mg
Glucokinasic activity compared with biotin (hepatic glucokinase [3]; result in words, after 6 hours, 3 mg/kg i.p.): more active than biotin
